The values that follow come from US9676777B2, “Compounds useful for producing an optically active diazabicyclooctane compound” (Meiji Seika Pharma Co., Ltd., priority 2010, dated 2017).

Broadly, the MIC is the least concentration at which growth counts as inhibited.

Assay [1] deals with P. aeruginosa PAO1 variant, which constitutively expresses AmpC. The experiment in a line: Combinatorial antibacterial activity (MIC of PIPC) in combination with test compound, agar plate dilution. The assay is classed as cell-based, Pseudomonas aeruginosa. The following applies: for MIC: Pseudomonas aeruginosa, PAO1; for effect of the compound in combination with an antibiotic: result in words. As for the experimental part:
The biological activity of the above-mentioned compounds represented by formulae (H) and (s) can be measured as follows. Specifically, an enzyme inhibitory activity (IC50 value) against AmpC enzyme which is a class C β-lactamase was determined using nitrocephin as a substrate to check whether or not the compounds had the inhibitory activity and compare the activities of them. Further, using constitutive AmpC producing Pseudomonas aeruginosa, a combined antimicrobial activity (MIC) was measured when using Piperacillin (PIPC) as an antibiotic and the compound of formula (H) or (s) in combination to check whether or not the antimicrobial activity of PIPC could be restored.
The combinatorial effect of the test compound with a β-lactam agent against bacteria was evaluated using AmpC constitutive expression strain selected from P. aeruginosa PAO1 through agent exposure. Using piperacillin (PIPC, Sigma-Aldrich) as a β-lactam agent, measurement was conducted by agar plate dilution process in which minimal inhibitory concentration (MIC) of PIPC is based on Clinical and Laboratory Standards Institute (CLSI process). That is, an agara plate containing 4 μg/mL (final concentration) of test compound and PIPC at each concentration in Mueller-Hinton agar (Becton, Dickinson and Company) was made, and bacteria cultured overnight in cation-adjusted Muller-Hinton broth (Becton, Dickinson and Company) were adjusted in the same medium so as to have 10^4 CFU/spot and inoculated on a plate containing an agent. This plate containing an agent was cultured overnight at 35° C., and the minimum agent concentration in which no growth of bacteria is observed was determined to be MIC.

The target in assay [2] is AmpC (Pseudomonas aeruginosa (strain ATCC 15692 / DSM 22644 / CIP 104116 / JCM 14847 / LMG 12228 / 1C / PRS 101 / PAO1), UniProt P24735). The assay is classed as biochemical. The following applies: result in words. As for the experimental part: The biological activity of the above-mentioned compounds represented by formulae (H) and (s) can be measured as follows. […] Further, using constitutive AmpC producing Pseudomonas aeruginosa, a combined antimicrobial activity (MIC) was measured when using Piperacillin (PIPC) as an antibiotic and the compound of formula (H) or (s) in combination to check whether or not the antimicrobial activity of PIPC could be restored.
AmpC, sequence (P24735 27-397): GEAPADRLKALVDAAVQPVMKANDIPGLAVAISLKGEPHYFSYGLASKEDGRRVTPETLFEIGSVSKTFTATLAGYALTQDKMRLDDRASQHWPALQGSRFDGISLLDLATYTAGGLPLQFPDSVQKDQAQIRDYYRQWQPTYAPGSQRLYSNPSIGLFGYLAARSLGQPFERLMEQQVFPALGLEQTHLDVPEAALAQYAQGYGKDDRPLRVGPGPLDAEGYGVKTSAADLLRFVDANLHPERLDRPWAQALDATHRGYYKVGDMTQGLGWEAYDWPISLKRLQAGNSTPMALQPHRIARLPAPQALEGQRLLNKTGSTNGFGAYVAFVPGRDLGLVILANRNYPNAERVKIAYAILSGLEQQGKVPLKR
Using P. aeruginosa PAO1 genome as a template, a DNA for encoding an AmpC β-lactamase domain excluding a signal peptide was amplified with PCR. This PCR product was incorporated into pET-28b(+)vector (Merck), introduced into E. coli BL21 (Merck), and, under induction of 1 mM isopropyl-β-D-(−)-thiogalactopyranoside (Nacalai Tesque), cultured overnight at 20° C. to express AmpC. After the bacterial cell was collected, AmpC was purified from the cell extract obtained by ultrasonic treatment, using CM Sepharose Fast Flow (GE Healthcare) and HiTrap Heparin HP (GE Healthcare) at 4° C.

Turning to `C[C@]1(Cn2ccnn2)[C@H](C(=O)[O-])N2C(=O)C[C@H]2S1(=O)=O.[Na+]` [TAZ, Tazobactam, reference compound], the MIC in assay [1] came out at 64 µg/mL.
Turning to `NC(=O)[C@@H]1CC[C@@H]2CN1C(=O)N2OS(=O)(=O)[O-].[Na+]` [Example 23, (2S,5R)-1,6-Diazabicyclo[3.2.1]octane-2-carboxamide, 7-oxo-6-(sulfoxy)-monosodium salt], in assay [1], the minimal inhibitory concentration (MIC) was determined as 4 µg/mL and the “effect of the compound in combination with an antibiotic” value is reported as “exhibited the activities”. In addition, in assay [2], the “β-lactamase enzyme inhibitory activity” value is reported as “exhibited the activities”.
In the case of `NC(=O)[C@H]1CC[C@H]2CN1C(=O)N2OS(=O)(=O)[O-].[Na+]` [Example 24, (2R,5S)-1,6-Diazabicyclo[3.2.1]octane-2-carboxamide, 7-oxo-6-(sulfoxy)-monosodium salt], in assay [1], the MIC was found to be 64 µg/mL and the “effect of the compound in combination with an antibiotic” value is listed as “exhibited no activity”. Moreover, the “β-lactamase enzyme inhibitory activity” value in assay [2] was “exhibited no activity”.
